Laboratory results from publication PMC6213900, “Design, Synthesis, and Cytotoxic Analysis of Novel Hederagenin–Pyrazine Derivatives Based on Partial Least Squares Discriminant Analysis” (International Journal of Molecular Sciences, 2018).

Assays:
[1] = test system: A549 (human non-small-cell lung cancer); assay: MTT cytotoxicity assay, A549; assay type: cell-based; conditions: Homo sapiens, A549, 72 h treatment, read-out: Half Maximal Inhibitory Concentration (IC50) A549
Method in brief: (§1)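 Cells seeded at 3 × 10^3/well in DMEM/10% FBS, then treated 72 h with 3.125–50 μM compound in DMSO. MTT (5 mg/mL) added for 4 h, formazan dissolved in DMSO, absorbance read at 490 nm; inhibition relative to untreated control, IC50 as 50% growth inhibition, triplicate runs.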

[2] = test system: HepG2 (human hepatocellular carcinoma); assay: MTT cytotoxicity assay, HepG2; assay type: cell-based; conditions: Homo sapiens, HepG2; MTT, 72 h treatment; read-out: Half Maximal Inhibitory Concentration (IC50) HepG2
Method in brief: as §1

A549 cells [3] = assay: Annexin V-FITC/PI staining, flow cytometry; assay type: cell-based, human; conditions: 72 h
Method: To further depict the apoptosis induced by compound 9, apoptotic rates were analyzed by flow cytometry using Annexin V-FITC/PI staining.
According to instructions, A549 cells were stained with an annexin-V FITC apoptosis detection kit (Beijing BioDee Biotech. Co., Ltd., Beijing, China). A549 cells in the logarithmic growth phase were seeded in six-well plates (4.8 × 10^4 cells/well). After incubation for 24 h at 37 °C with 5% CO2, various concentrations (0, 2, 5, or 10 μM) of compound 9 were added to the cultures, and the plate was incubated for a further 72 h. A549 cells were collected, washed twice with cold PBS, and centrifuged at 2400 rpm for 10 min. The resulting pellet was mixed with 200 μL of binding buffer of the Annexin V-FITC kit; then, 5 μL of FITC-labeled annexin V was added and mixed gently. After incubation at 4 °C for 10 min in the dark, 5 μL of PI was added. Then, the cells were immediately analyzed with a flow cytometer at 488 nm.

A549 cells [4] = assay: DAPI staining, nuclear morphology; assay type: cell-based, human; conditions: 6 μM, 72 h
Method: As pictured in Figure 6, in the control group, the nucleus was intact and evenly colored. […] When the concentration of the drug increased, nuclear condensation, nuclear fragmentation, and the formation of apoptotic bodies appeared.
A549 cells in the logarithmic growth phase were seeded in 12-well plates (1.2 × 10^4 cells/well). After incubation for 24 h at 37 °C with 5% CO2, various concentrations (0, 2, 4, or 6 μM) of compound 9 were added to the cultures, and the plate was incubated for further 72 h. Then, we discarded the cell culture fluid, washed twice with PBS, and fixed the cells with 4% paraformaldehyde for 10 min. After that, we added the appropriate amount of DAPI (1 mg/mL; Molecular Probes/Invitrogen Life Technologies, Carlsbad, CA, USA) to cover the bottom of the board, after staining for 5 min in the dark.

With Cc1cncc(C(=O)OCCOC(=O)[C@]23CCC(C)(C)CC2C2=CCC4[C@@]5(C)CC[C@H](O)[C@@](C)(CO)C5CC[C@@]4(C)[C@]2(C)CC3)n1 (stereo partly drawn) [Compound 9, 2-(((4aS,6aS,6bR,9R,10S,12aR)-10-Hydroxy-9-(hydroxymethyl)-2,2,6a,6b,9,12a-hexamethyl-1,2,3,4,4a,5,6,6a,6b,7,8,8a,9,10,11,12,12a,12b,13,14b-icosahydropicene-4a-carbonyl)oxy)ethyl-6-methylpyrazine-2-carboxylate] the IC50 [1] was 3.45 ± 0.59 µM, the IC50 [2] was 8.71 ± 0.38 µM and the “percentage of apoptotic cells (early and late apoptosis)” value (from here on “percentage of apoptotic cells”) (A549 cells [3]; 2 μM) was 17.4%. The “percentage of apoptotic cells” value (A549 cells [3]; 5 μM) was 72.0%, the “percentage of apoptotic cells” value (A549 cells [3]; 10 μM) was 91.5% and the “nuclear morphology, DAPI staining” value (A549 cells [4]) was “the number of cells decreased drastically, the shape of the cells became irregular, and nuclear fragmentation occurred”.
